Laboratory results: US9550989B2, “Rational design of microRNA-siRNA chimeras for multi-functional target suppression” (Washington University, priority 2013, dated 2017)

Key:
Assay type in all cases: cell-based, human
HeLa cells = assay: Transwell migration assay; details: transwell migration; for promotion of cell motility as compared to the negative control: increase by %; for cell mobility on average as compared to the control: increased to % of control
Method: (A) Transwell migration assays to assess changes in cell motility. (B) MTS assays to assess changes in cell proliferation.
(§1) FIG. 7 depicts images and graphs showing functional characterization of aiR-9 on cell motility and cell death. […] One representative microscope image from each assay is presented here. (B) Impact of aiR-9 on cell death. TP53 deficiency renders HCT116 cells resistance to cisplatin-induced cell death. HCT116 cells and HCT116 p53^−/− cells were treated with cisplatin (50 μM) and cell death was determined as sub-G1 population by flow cytometry analysis after DNA PI staining. Furthermore, HCT116 cells were transfected with negative control RNA, aiR-9-2 or miR-9 individually followed by cisplatin treatment, and then analyzed by flow cytometry for cell death with PI staining.
Cultured cells were resuspended and washed with PBS buffer. Fifty thousand cells in 100 μL serum-free medium were added to the upper chamber of each Transwell (24-well insert with 8 um pore size from Costar). The lower chamber was filled with 600 μL medium containing 10% bovine serum. Cells were incubated for 6 h and cells on top of the membrane were removed with a cotton-tipped swab. Cells that had migrated through the membrane were fixed and stained with Hema-3 (Fisher Scientific) for counting.

TP53 = assay: Real-time RT-PCR of target mRNA; details: HeLa cells
Excerpt: FIG. 6 depicts sequences and a graph showing design and validation of aiRNA-9. (A) Sequences of three aiR-9 RNAs. […] The seed regions are underlined.

HCT116 cells = assay: Flow cytometry of cisplatin-induced cell death (sub-G1, PI staining); details: cisplatin 50 μM
Method: as §1
HCT116 and HCT116 p53^−/− cells were cultured in DMEM with 10% FBS. Cisplatin, DNase-free RNase and Propidum Iodide (PI) were purchased from Sigma. After treatment with cisplatin (50 μM), all cells (both floating and attached) were collected, washed once with DPBS, and then fixed with 70% ethanol on ice for at least 30 minutes. Fixed cells were washed twice with DPBS and then stained with PI solution [PI (25 μg/ml) and DNase-free RNase (100 μg/ml) diluted in PBS] at room temperature for 1 hour avoiding light exposure. Data were acquired by BD Aris FACS and analyzed using Flowing Software 2 version 2.5.0 (Finland).

miR-9: natural miRNA, SEQ ID NO:9 UCUUUGGUUAUCUAGCUGUAUGA (listed as RNA, chemistry not given here) [reference compound]
promotion of cell motility as compared to the negative control (HeLa cells): 44%
cell mobility on average as compared to the control (HeLa cells): 144%

aiR-9-2: aiRNA with miR-9 seed and TP53 siRNA homology, SEQ ID NO:11 UCUUUGGUUGGGGAGAGGAGC (listed as RNA, chemistry not given here)
suppression of TP53 expression (TP53): effectively suppress
promotion of cell motility as compared to the negative control (HeLa cells): 57%
cell mobility on average as compared to the control (HeLa cells): 157%
cisplatin-induced cell death (sub-G1 cell population) (HCT116 cells): drastic suppression of cisplatin-induced cell death
